Experimental data taken from patent publication US9498483B2, “2,3,5-trisubstituted thiophene compounds and uses thereof” (priority 2010, dated 2016).
pIC50: −log10 of the molar value.

What was measured:
[1] = test system: HCV replicon I389luc-ubi-neo/NS3-3′/ET in ET (Huh-lucubineo-ET) cells; test: Replicon assay (Biological Example 2), luciferase readout; assay type: cell-based; settings: Hepatitis C virus
Outline: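 EC50 values come from Hill fits of % inhibition of replicon-driven firefly luciferase, relative to no-compound wells. Compounds were serially diluted (10 points, 3-fold, 0.1 nM–50 μM final, 0.5% DMSO) onto ET replicon cells and read after 48 h.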

HCV polymerase = molecular target: T1, HCV polymerase (Hepatitis C virus genotype 1b, UniProt Q9WMX2); test: Polymerase assay of Biological Example 1 (IC50 values of Table 3); assay type: biochemical; settings: IC50 values of Table 3, polymerase assay of Biological Example 1; read-out: NS5B-enzyme3
T1 construct: (His)6 (C); made in house; host or cells: XL-1 cells (E. coli, by own knowledge)

[2] = ET cells, luciferase activity 48 hours after compound

## CN(c1ccc(S(=O)(=O)N2CC(=O)N(c3cc(-c4ccccc4)sc3C(=O)O)C(C3CCCCC3)C2)cn1)C1CCCCC1 (stereo not shown) [Compound 91, 3-{2-Cyclohexyl-4-[6-(cyclohexyl-methyl-amino)-pyridine-3-sulfonyl]-6-oxo-piperazin-1-yl}-5-phenyl-thiophene-2-carboxylic acid]
[1]; [2]
  pIC50: ≥ 7.00
HCV polymerase
  pIC50: 7.92

## Cc1cc(S(=O)(=O)N2CC(=O)N(c3cc(-c4ccccc4)sc3C(=O)O)[C@H](C3CCCCC3)C2)cnc1N1CCCC1 [Compound 172, 3-[(R)-2-Cyclohexyl-4-(5-methyl-6-pyrrolidin-1-yl-pyridine-3-sulfonyl)-6-oxo-piperazin-1-yl]-5-phenyl-thiophene-2-carboxylic acid]
[1]; [2]
  pIC50: ≥ 7.00
HCV polymerase
  pIC50: 8.92

## CC(C)(C)C#Cc1cc(N2C(=O)C(O)(CCCO)CCC2C2CCCCC2)c(C(=O)O)s1 (stereo not shown) [Compound 11, 3-[6-Cyclohexyl-3-hydroxy-3-(3-hydroxy-propyl)-2-oxo-piperidin-1-yl]-5-(3,3-dimethyl-but-1-ynyl)-thiophene-2-carboxylic acid]
[1]; [2]
  pIC50: ≥ 7.00
HCV polymerase
  pIC50: 8.10

## Cc1ccc(-c2cc(N3C(=O)CN(S(=O)(=O)c4ccc(C)nc4)C[C@H]3C3CCCCC3)c(C(=O)O)s2)cc1 [Compound 302, 3-[(R)-2-Cyclohexyl-4-(6-methyl-pyridine-3-sulfonyl)-6-oxo-piperazin-1-yl]-5-p-tolyl-thiophene-2-carboxylic acid]
[1]; [2]
  pIC50: ≥ 7.00
HCV polymerase
  pIC50: 8.52

## O=C(O)c1sc(-c2ccccc2)cc1N1C(=O)CN(S(=O)(=O)c2ccc(-c3ccc(CN4CCOCC4)cc3)nc2)C[C@H]1C1CCCCC1 [Compound 208, 3-{(R)-2-Cyclohexyl-4-[6-(4-morpholin-4-ylmethyl-phenyl)-pyridine-3-sulfonyl]-6-oxo-piperazin-1-yl}-5-phenyl-thiophene-2-carboxylic acid]
[1]; [2]
  pIC50: ≥ 7.00
HCV polymerase
  pIC50: 8.85

## COc1ccc(S(=O)(=O)N2CC(=O)N(c3cc(-c4ccccc4)sc3C(=O)O)C(C3CCCCC3)C2)cc1C(=O)O (stereo not shown) [Compound 29, 3-[4-(3-Carboxy-4-methoxy-benzenesulfonyl)-2-cyclohexyl-6-oxo-piperazin-1-yl]-5-phenyl-thiophene-2-carboxylic acid]
[1]; between 100 nM and 5.0 uM
  pIC50: 5.30 to 7.00
HCV polymerase
  pIC50: 9.00

## CC(C)(C)C#Cc1cc(N2C(=O)OC[C@H]2C2CCCCC2)c(C(=O)O)s1 [Compound 181, 3-((R)-4-Cyclohexyl-2-oxo-oxazolidin-3-yl)-5-(3,3-dimethyl-but-1-ynyl)-thiophene-2-carboxylic acid]
[1]; between 100 nM and 5.0 uM
  pIC50: 5.30 to 7.00
HCV polymerase
  pIC50: 8.52

## CC(C)S(=O)(=O)N1CC(=O)N(c2cc(-c3ccccc3)sc2C(=O)O)C(C2CCCCC2)C1 (stereo not shown) [Compound 37, 3-[2-Cyclohexyl-6-oxo-4-(propane-2-sulfonyl)-piperazin-1-yl]-5-phenyl-thiophene-2-carboxylic acid]
[1]; between 100 nM and 5.0 uM
  pIC50: 5.30 to 7.00
HCV polymerase
  pIC50: 7.14

## O=C(O)c1sc(-c2ccccc2)cc1N1C(=O)CN(S(=O)(=O)c2ccc(-c3ccc4c(c3)OCCCO4)nc2)C[C@H]1C1CCCCC1 [Compound 212, 3-{(R)-2-Cyclohexyl-4-[6-(3,4-dihydro-2H-benzo[b][1,4]dioxepin-7-yl)-pyridine-3-sulfonyl]-6-oxo-piperazin-1-yl}-5-phenyl-thiophene-2-carboxylic acid]
[1]; [2]
  pIC50: ≥ 7.00
HCV polymerase
  pIC50: 8.70

## O=C(O)c1sc(-c2ccccc2)cc1N1C(=O)CN(S(=O)(=O)c2ccc(N3CC[C@@H](F)C3)nc2)CC1C1CCCCC1 (stereo partly drawn) [Compound 120, 3-{2-Cyclohexyl-4-[6-((R)-3-fluoro-pyrrolidin-1-yl)-pyridine-3-sulfonyl]-6-oxo-piperazin-1-yl}-5-phenyl-thiophene-2-carboxylic acid]
[1]; [2]
  pIC50: ≥ 7.00
HCV polymerase
  pIC50: 8.22

## CCc1ccc(-c2cc(N3C(=O)CCCC3C3CCCCC3)c(C(=O)O)s2)cc1 (stereo not shown) [Compound 72, 3-(2-Cyclohexyl-6-oxo-piperidin-1-yl)-5-(4-ethyl-phenyl)-thiophene-2-carboxylic acid]
[1]; between 100 nM and 5.0 uM
  pIC50: 5.30 to 7.00
HCV polymerase
  pIC50: 7.19

## O=C(O)c1sc(-c2ccccc2)cc1N1C(=O)CN(S(=O)(=O)c2cccc(F)c2)CC1C1CCCCC1 (stereo not shown) [Compound 104, 3-[2-Cyclohexyl-4-(3-fluoro-benzenesulfonyl)-6-oxo-piperazin-1-yl]-5-phenyl-thiophene-2-carboxylic acid]
[1]; between 100 nM and 5.0 uM
  pIC50: 5.30 to 7.00
HCV polymerase
  pIC50: 7.68

## C[C@@H]1CN(c2ccc(S(=O)(=O)N3CC(=O)N(c4cc(-c5ccccc5)sc4C(=O)O)[C@H](C4CCCCC4)C3)cn2)CCN1C(=O)OC(C)(C)C [Compound 151, (R)-4-{5-[(R)-4-(2-Carboxy-5-phenyl-thiophen-3-yl)-3-cyclohexyl-5-oxo-piperazine-1-sulfonyl]-pyridin-2-yl}-2-methyl-piperazine-1-carboxylic acid tert-butyl ester]
[1]; [2]
  pIC50: ≥ 7.00
HCV polymerase
  pIC50: 8.52

## Cc1ccc(-c2cc(N3C(=O)CN(S(=O)(=O)c4cnn(CC(C)C)c4)C[C@H]3C3CCCCC3)c(C(=O)O)s2)cc1 [Compound 301, 3-[(R)-2-Cyclohexyl-4-(1-isobutyl-1H-pyrazole-4-sulfonyl)-6-oxo-piperazin-1-yl]-5-p-tolyl-thiophene-2-carboxylic acid]
[1]; [2]
  pIC50: ≥ 7.00
HCV polymerase
  pIC50: 8.40

## C[C@H]1OCC(=O)N(c2cc(C#CC(C)(C)C)sc2C(=O)O)[C@@H]1C1CCCCC1 [Compound 291, 3-((2R,3R)-3-Cyclohexyl-2-methyl-5-oxo-morpholin-4-yl)-5-(3,3-dimethyl-but-1-ynyl)-thiophene-2-carboxylic acid]
[1]; [2]
  pIC50: ≥ 7.00
HCV polymerase
  pIC50: 8.10

## CN1CCN(c2ccc(S(=O)(=O)N3CC(=O)N(c4cc(-c5ccccc5)sc4C(=O)O)[C@H](C4CCCCC4)C3)cn2)CC1 [Compound 137, 3-{(R)-2-Cyclohexyl-4-[6-(4-methyl-piperazin-1-yl)-pyridine-3-sulfonyl]-6-oxo-piperazin-1-yl}-5-phenyl-thiophene-2-carboxylic acid]
[1]; [2]
  pIC50: ≥ 7.00
HCV polymerase
  pIC50: 8.82

## Cc1ncc(S(=O)(=O)N2CC(=O)N(c3cc(C#CC(C)(C)C)sc3C(=O)O)[C@H](C3CCCCC3)C2)n1C [Compound 255, 3-[(R)-2-Cyclohexyl-4-(2,3-dimethyl-3H-imidazole-4-sulfonyl)-6-oxo-piperazin-1-yl]-5-(3,3-dimethyl-but-1-ynyl)-thiophene-2-carboxylic acid]
[1]; between 100 nM and 5.0 uM
  pIC50: 5.30 to 7.00
HCV polymerase
  pIC50: 8.30

## COc1cc(F)c(S(=O)(=O)N2CC(=O)N(c3cc(C#CC(C)(C)C)sc3C(=O)O)[C@H](C3CCCCC3)C2)cc1OC [Compound 276, 3-[(R)-2-Cyclohexyl-4-(2-fluoro-4,5-dimethoxy-benzenesulfonyl)-6-oxo-piperazin-1-yl]-5-(3,3-dimethyl-but-1-ynyl)-thiophene-2-carboxylic acid]
[1]; [2]
  pIC50: ≥ 7.00
HCV polymerase
  pIC50: 8.70

## Cn1ccc2cccc(S(=O)(=O)N3CC(=O)N(c4cc(-c5ccccc5)sc4C(=O)O)C(C4CCCCC4)C3)c21 (stereo not shown) [Compound 57, 3-[2-Cyclohexyl-4-(1-methyl-1H-indole-7-sulfonyl)-6-oxo-piperazin-1-yl]-5-phenyl-thiophene-2-carboxylic acid]
[1]; [2]
  pIC50: ≤ 5.30
HCV polymerase
  pIC50: 6.59

## CC(C)(C)C#Cc1cc(N2C(=O)[C@](C)(CCCO)OC[C@H]2C2CCCCC2)c(C(=O)O)s1 [Compound 7, 3-[(2S,5R)-5-Cyclohexyl-2-(3-hydroxy-propyl)-2-methyl-3-oxo-morpholin-4-yl]-5-(3,3-dimethyl-but-1-ynyl)-thiophene-2-carboxylic acid]
[1]; [2]
  pIC50: ≥ 7.00
HCV polymerase
  pIC50: 8.22

## COCCNc1ccc(S(=O)(=O)N2CC(=O)N(c3cc(-c4ccccc4)sc3C(=O)O)C(C3CCCCC3)C2)cn1 (stereo not shown) [Compound 78, 3-{2-Cyclohexyl-4-[6-(2-methoxy-ethylamino)-pyridine-3-sulfonyl]-6-oxo-piperazin-1-yl}-5-phenyl-thiophene-2-carboxylic acid]
[1]; [2]
  pIC50: ≥ 7.00
HCV polymerase
  pIC50: 8.30

## NCC1CCN(c2ccc(S(=O)(=O)N3CC(=O)N(c4cc(-c5ccccc5)sc4C(=O)O)[C@H](C4CCCCC4)C3)cn2)CC1 [Compound 143, 3-[(R)-4-(4-Aminomethyl-3,4,5,6-tetrahydro-2H-[1,2′]bipyridinyl-5′-sulfonyl)-2-cyclohexyl-6-oxo-piperazin-1-yl]-5-phenyl-thiophene-2-carboxylic acid]
[1]; [2]
  pIC50: ≥ 7.00
HCV polymerase
  pIC50: 8.72

## Cn1ccc(S(=O)(=O)N2CC(=O)N(c3cc(-c4ccccc4)sc3C(=O)O)C(C3CCCCC3)C2)n1 (stereo not shown) [Compound 62, 3-[2-Cyclohexyl-4-(1-methyl-1H-pyrazole-3-sulfonyl)-6-oxo-piperazin-1-yl]-5-phenyl-thiophene-2-carboxylic acid]
[1]; between 100 nM and 5.0 uM
  pIC50: 5.30 to 7.00
HCV polymerase
  pIC50: 7.96

## O=C(O)c1sc(-c2ccc(Cl)cc2)cc1N1C(=O)CN(S(=O)(=O)c2ccc(N3CC4CCC(C3)O4)nc2)C[C@H]1C1CCCCC1 [Compound 227, 5-(4-Chloro-phenyl)-3-{(R)-2-cyclohexyl-4-[6-(8-oxa-3-aza-bicyclo[3.2.1]oct-3-yl)-pyridine-3-sulfonyl]-6-oxo-piperazin-1-yl}-thiophene-2-carboxylic acid]
[1]; [2]
  pIC50: ≥ 7.00
HCV polymerase
  pIC50: 9.00

## O=C(Cc1ccccc1)NC1CC(=O)N(c2cc(-c3ccccc3)sc2C(=O)O)C(C2CCCCC2)C1 (stereo not shown) [Compound 20, 3-(2-Cyclohexyl-6-oxo-4-phenylacetylamino-piperidin-1-yl)-5-phenyl-thiophene-2-carboxylic acid]
[1]; [2]
  pIC50: ≤ 5.30
HCV polymerase
  pIC50: 6.89

## O=C(O)c1sc(-c2ccc(Cl)cc2)cc1N1C(=O)CN(S(=O)(=O)c2ccc(N3CCOCC3)nc2)C[C@H]1C1CCCCC1 [Compound 199, 5-(4-Chloro-phenyl)-3-[(R)-2-cyclohexyl-4-(6-morpholin-4-yl-pyridine-3-sulfonyl)-6-oxo-piperazin-1-yl]-thiophene-2-carboxylic acid]
[1]; [2]
  pIC50: ≥ 7.00
HCV polymerase
  pIC50: 8.70
